The test system of series [1] is voltage-gated sodium channels. The class given is cell-based, human.
The procedure of series [2]:
The amplitude and rate of the observed depolarization was reduced by the removal of extracellular Na^+ concentration. […] This reduction effect was more pronounced in the absence of extracellular Na^+ and in cells that were not pre-incubated with the compound.

Another series concerns Na^+ channels. The class given is cell-based, human. Conditions: read-out: Tetrodotoxin IC50.

Where “and” joins values, the source holds several entries; their conditions need not be identical. Equal values may be shown once. Read-outs that look alike come from different tables or passages of the source.

Turning to `COc1ccc(CCN(C)CCCC(C#N)(c2ccc(OC)c(OC)c2)C(C)C)cc1OC` (stereo not shown) [Verapamil], in series [1], the “Amplitude (% max)” value is reported as 32.84 ± 0.330 % max and the “Rate (% change/ s)” value came out at 0.141 ± 0.014 % change/ s.

As to `COc1cc(N)c(Cl)cc1C(=O)NC1CCN(CCCOc2ccc(F)cc2)CC1OC` (stereo not shown) [cisapride], in series [2], the “KCl-induced plasma membrane depolarization” value is recorded as “reduced”.

Take `Clc1ccccc1C(c1ccccc1)(c1ccccc1)n1ccnc1` [Clotrimazole]: the “Rate (% change/ s)” value in series [1] (1 μM, 30 min pre-incubation, 8 V train of 750 μs pulses, 8 pulses per s for 3 s) is 0.124 ± 0.024 % change/ s. The “Amplitude (% max)” value in series [1] (1 μM, 30 min pre-incubation, 8 V train, % of maximal depolarization with 50 mM KCl) is listed as 33.92 ± 0.320 % max.

Take `NC1=N[C@H](O)[C@H]2[C@H]3O[C@]4(O)O[C@@H]([C@@H](O)[C@@]2(N1)[C@@H]4O)[C@]3(O)CO` [TTX, tetrodotoxin]: the IC50 (commonly the concentration that inhibits the measured activity by half) with Na^+ channels is 9.5 nM and 6.69 nM. In addition, in series [1], the “Amplitude (% max)” value stood at 24.260 ± 0.290 % max, the “Rate (% change/ s)” value was determined as 0.001 ± 0.001 % change/ s, the “effect on voltage-induced depolarizations” value was “blocked the depolarizations in a dose-dependent manner” and the “voltage-induced changes in plasma membrane potential” value is recorded as “completely abolished”. Besides, in series [1] (read-out: IC50 for block of voltage-induced depolarizations), the IC50 is about 9 nM.

In the case of Charybdotoxin, the “Rate (% change/ s)” value in series [1] (100 nM, 30 min pre-incubation, 8 V train of 750 μs pulses, 8 pulses per s for 3 s) was determined as 0.115 ± 0.013 % change/ s. In addition, the “Amplitude (% max)” value in series [1] (100 nM, 30 min pre-incubation, 8 V train, % of maximal depolarization with 50 mM KCl) came out at 34.09 ± 0.326 % max.

The record behind these values is patent US20040115614A1, “Electrophysiology assay methods” (priority 2002, published 2004).
